The text below walks through data of PubChem BioAssay (NCI).

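All cell lines were grown in 96-well plates and treated with compound for 48 hours. TGI: concentration producing complete growth inhibition.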

Test systems include ACHN renal; CAKI-1 renal; DU-145 prostate; HCT-15 colon; MDA-N; NCI-H23 lung; NCI-H522 lung; NCI/ADR-RES ovarian; OVCAR-3 ovarian; OVCAR-5 ovarian; PC-3 prostate; SNB-19 CNS; SW-620 colon; T-47D breast; TK-10 renal; U251 CNS; UACC-62 melanoma; HCC-2998 colon; MDA-MB-231 breast.
What all share (experiment): inhibition of tumour cell growth, NCI panel, 48 h

Take `O=C(O)Cc1ccc(Nc2nc3ccccc3nc2C(=O)O)cc1`: the TGI with ACHN renal, in the assay on CAKI-1 renal, in the assay on DU-145 prostate, in the assay on HCT-15 colon, in the assay on MDA-N and in the assay with NCI-H23 lung was over 100 µM throughout. The TGI with NCI-H522 lung, with NCI/ADR-RES ovarian, in the assay with OVCAR-3 ovarian, with OVCAR-5 ovarian, with PC-3 prostate and in the assay with SNB-19 CNS was over 100 µM each time. Moreover, the TGI in the assay with SW-620 colon, in the assay on T-47D breast, in the assay on TK-10 renal, in the assay on U251 CNS and with UACC-62 melanoma was over 100 µM throughout.
As for `O=c1[nH]nc(-c2ccccc2)n1/N=C/c1ccco1`, the TGI in the assay on ACHN renal, in the assay with CAKI-1 renal, with DU-145 prostate, in the assay with HCT-15 colon, in the assay with MDA-N and in the assay with NCI-H23 lung was over 100 µM each time. The TGI in the assay on NCI-H522 lung, in the assay with NCI/ADR-RES ovarian, in the assay with OVCAR-3 ovarian, in the assay with OVCAR-5 ovarian, in the assay with PC-3 prostate and in the assay on SNB-19 CNS was over 100 µM throughout. Moreover, the TGI in the assay with SW-620 colon, in the assay with T-47D breast, in the assay with TK-10 renal, in the assay with U251 CNS and in the assay on UACC-62 melanoma was over 100 µM in each case.
Consider `Cc1ccc(S(=O)(=O)N2CCCSCCSCCCN(S(=O)(=O)c3ccc(C)cc3)CC2)cc1`, for which the TGI in the assay with ACHN renal, in the assay with DU-145 prostate, in the assay with HCC-2998 colon, with HCT-15 colon, with MDA-MB-231 breast and in the assay with MDA-N was over 100 µM in each case. Besides, the TGI in the assay on NCI-H23 lung, in the assay on NCI/ADR-RES ovarian, in the assay with OVCAR-3 ovarian, in the assay on OVCAR-5 ovarian, with SNB-19 CNS and in the assay on SW-620 colon was over 100 µM each time. The TGI in the assay on T-47D breast, with TK-10 renal, with U251 CNS and in the assay with UACC-62 melanoma was over 100 µM each time.
Consider `O=C1CNC(=O)/C(=C/c2c[nH]c3ccccc23)N1`, for which the TGI in the assay with ACHN renal, with CAKI-1 renal, in the assay on DU-145 prostate, with HCC-2998 colon, in the assay on HCT-15 colon and in the assay with MDA-N was over 100 µM throughout. For the same compound, the TGI with NCI-H23 lung, in the assay with NCI-H522 lung, in the assay on NCI/ADR-RES ovarian, with OVCAR-3 ovarian, with OVCAR-5 ovarian and in the assay on PC-3 prostate was over 100 µM in each case. Besides, the TGI in the assay on SNB-19 CNS, in the assay with SW-620 colon, in the assay with T-47D breast, with TK-10 renal and in the assay on UACC-62 melanoma was over 100 µM in each case.
For the compound `O=C1C2=Cc3ccccc3OC2(O)Oc2ccccc21` (stereo not drawn), the TGI in the assay with CAKI-1 renal, in the assay with DU-145 prostate, with HCC-2998 colon, with HCT-15 colon, with MDA-MB-231 breast and with MDA-N was over 100 µM in each case. Moreover, the TGI in the assay with NCI-H23 lung, in the assay on NCI/ADR-RES ovarian, with OVCAR-3 ovarian, in the assay with OVCAR-5 ovarian, in the assay with PC-3 prostate and in the assay with SW-620 colon was over 100 µM in each case. Besides, the TGI in the assay on T-47D breast, in the assay on TK-10 renal, with U251 CNS and in the assay with UACC-62 melanoma was over 100 µM in each case.
Consider `O=C(/C=C/c1ccc(OCc2ccccc2)cc1)NCc1ccc(C(=O)NCCc2c[nH]c3ccccc23)cc1`, for which the TGI in the assay on ACHN renal is over 100 µM; in the assay with CAKI-1 renal, 45.4 µM; in the assay with DU-145 prostate, over 100 µM; with HCC-2998 colon, over 100 µM; with HCT-15 colon it was over 100 µM; in the assay on MDA-MB-231 breast, 61.1 µM. For the same compound, the TGI in the assay with MDA-N is over 100 µM; with NCI-H23 lung, 38.8 µM; in the assay on NCI/ADR-RES ovarian it was over 100 µM; in the assay with OVCAR-3 ovarian, over 100 µM; with OVCAR-5 ovarian, 69.4 µM; with PC-3 prostate it was 55 µM. In addition, the TGI with SNB-19 CNS is 29.9 µM; in the assay on SW-620 colon it was over 100 µM; in the assay on T-47D breast, over 100 µM; with TK-10 renal, over 43 µM; in the assay with U251 CNS it was 20.5 µM; with UACC-62 melanoma, 51.7 µM.
In the case of `CCOc1ccccc1NC(=O)C(=O)C(/C(=N/N)C(=O)OC)c1nc2ccc([N+](=O)[O-])cc2[nH]c1=O` (stereo not drawn), the TGI in the assay with CAKI-1 renal, in the assay with HCC-2998 colon, in the assay on HCT-15 colon, in the assay with MDA-MB-231 breast, in the assay on MDA-N and with NCI-H522 lung was over 100 µM each time. The TGI in the assay on NCI/ADR-RES ovarian, in the assay on OVCAR-3 ovarian, in the assay with OVCAR-5 ovarian, in the assay with PC-3 prostate, in the assay with SW-620 colon and in the assay on T-47D breast was over 100 µM each time. In addition, the TGI in the assay with TK-10 renal, in the assay on U251 CNS and in the assay on UACC-62 melanoma was over 100 µM in each case.
In the case of `O=C1c2c(O)cc(O)cc2C(C2OC(CO)C(O)C(O)C2O)c2cc(CO)cc(O)c21` (stereo not drawn), the TGI in the assay with ACHN renal, with DU-145 prostate, in the assay on HCC-2998 colon, with HCT-15 colon, in the assay with MDA-MB-231 breast and in the assay with MDA-N was over 100 µM each time. For the same compound, the TGI in the assay with NCI-H23 lung, in the assay on NCI/ADR-RES ovarian, in the assay with OVCAR-3 ovarian, in the assay on OVCAR-5 ovarian, in the assay on PC-3 prostate and in the assay on SNB-19 CNS was over 100 µM each time. Also, the TGI in the assay with SW-620 colon, in the assay on T-47D breast, in the assay on TK-10 renal, in the assay with U251 CNS and with UACC-62 melanoma was over 100 µM in each case.
